Measurements as given in patent US20240099295A1, “CELL TREATMENT AGENT” (AYA Inc., priority 2021, published 2024).

What was measured:
Format in all cases: cell-based
[1] = system: Mouse malignant melanoma highly metastatic strain cell; assay: Cell protective effect: cell survival during preservation under refrigeration (trypan blue excretion test); conditions: inhibitor b 0.25 mg/mL; 5% glucose solution; refrigerator 4° C.
Protocol: Using a 5% glucose solution as a conditioning solution, nafamostat mesilate (Fusan for Injection, available from Nichi-Iko Corporation), which is a proteolytic enzyme inhibitor, was added to the conditioning solution in the concentrations shown in Table 8 (in Fusan for Injection (available from Nichi-Iko Corporation), use of a 5% glucose solution as a dilution solution is specified) to prepare cell preservation solutions. To each cell preservation solution, cells of mouse malignant melanoma high metastatic strain were added at a concentration of 10^6 cells/ml and left in a refrigerator set at 4° C. for 48 hours, and then the average survival rate (%) of cells was determined in the same manner as in Experimental Example of (1-4-1-1). The results are of N=4.

[2] = system: rat corneal epithelial cells; assay: Cell detaching and suspending effect (Experimental Example 4); conditions: dextran aqueous solution (MW 35000-50000), concentrations shown in Table 13; observed over time
Protocol: A culture solution in which FBS was added to a normal serum-free cell culture solution in a concentration of 10% (10% FBS cell culture solution) was prepared in a culture dish. To this, rat corneal epithelial cells were added at 10^6 cells/ml and cultured for 24 hours under normal cell culture conditions (37° C., CO2 concentration of 5%, humidity of 100%) to make the cultured cells fully adhere to the culture dish wall which is a scaffold.
The culture solution in the culture dish on which cultured cells obtained as described above had adhered was replaced with each of dextran sulfate aqueous solutions and a dextran aqueous solution, which are respectively obtained by dissolving dextran sulfate (Dextran sodium sulfate MW 36000-50000, available from FUJIFILM Wako Pure Chemical Corporation) and dextran (Dextran MW 35000-50000, available from FUJIFILM Wako Pure Chemical Corporation) in purified water and have concentrations shown in Table 13, and the resultant culture solutions were continuously cultured under normal cell culture conditions (37° C., CO2 concentration of 5%, humidity of 100%). For each adherent cell, detachment and suspension of adherent cells from the dish wall was observed over time. For determination of detachment and suspension, the culture dish was gently shaken manually to observe whether the cells were detached from the dish wall and suspended, and the case where 90% or more of the cells were detached and suspended was determined as detachment and suspension of adherent cells. The results are of N=4. In Table 13, “∘” means that the cells were detached and suspended, and “x” means that the cells were not detached and suspended.

[3] = system: Rat corneal epithelial cell; assay: Cell protective effect: cell survival during preservation (trypan blue excretion test); conditions: for Average survival rate at 24 hours / Average survival rate after preservation for 24 hours: normal temperature (22° C.); for Average survival rate at 72 hours / Average survival rate after preservation for 7 days: refrigerator 4° C.
Protocol: (§1) Using a normal serum-free cell culture solution without FBS or a Ringer's solution (Otsuka Pharmaceutical Co., Ltd., Lactec Injection, Japanese Pharmacopoeia, Sodium L-lactate Ringer's solution) as a conditioning solution for use, for example, in preservation and transportation of cells, sodium alginate (Na alginate) (Fuji Chemical Industry Co., Ltd. Snow Algin SSL, viscosity of 1% aqueous solution is 30 mPa·s at 20° C.) was added to the conditioning solution in the concentrations shown in Table 1 to prepare cell preservation solutions. To each cell preservation solution, the above-described cells were added at a concentration of 10^6 cells/ml to satisfy the conditions shown in Table 1, and the resultant solution was left to stand in a room at normal temperature (22° C.) for 24 hours, and then whether cells were alive or dead was determined, and rates of viable cells (average survival rate (%)) were calculated and compared. Cell viability was determined by the trypan blue excretion test that is the ordinary method of confirming cell viability. The excretion test was performed according to the method described in “Denizot F., et al., Rapid colorimetric assay for cell growth and survival. Modifications to the tetrazolium dye procedure giving improved sensitivity and reliability. J. Immunol. Methods, 89, 271-277 (1986)”. The results are of N=4.
(§2) The average survival rate (%) was determined in the same manner as in Experimental Example (1-1-1) except that the preservation conditions were changed to leaving still for 72 hours in a refrigerator at a set temperature of 4° C. The results are of N=4.
The average survival rate (%) of cells was determined in the same manner as in Experimental Example (1-1-1) except that dextran sulfate (dextran sulfate special grade reagent available from NACALAI TESQUE, INC.) was used instead of sodium alginate and the conditions were as shown in Table 3. The results are of N=4.
The average survival rate (%) of cells was determined in the same manner as in Experimental Example (1-2-1) except that the preservation conditions were changed to leaving still for 72 hours in a refrigerator at a set temperature of 4° C. and to conditions shown in Table 4. The results are of N=3 in the case of using a serum-free cell culture solution, and are of N=4 in the case of using a Ringer's solution.
The average survival rate (%) of cells was determined in the same manner as in Experimental Example (1-1-1) except that heparin sodium (Heparin Na Mochida, unfractionated heparin, available from Mochida Pharmaceutical Co., Ltd.) was used instead of alginic acid and the conditions were as shown in Table 5. The results are of N=4.
The average survival rate (%) of cells was determined in the same manner as in Experimental Example (1-3-1) except that the preservation conditions were changed to leaving still for 72 hours in a refrigerator at a set temperature of 4° C. and to conditions shown in Table 6. The results are of N=4.
The average survival rate (%) of cells was determined in the same manner as in Experimental Example (1-3-2) except that urinastatin (Miraclid injection solution, containing 2.5 million units, available from Mochida Pharmaceutical Co., Ltd.) was used as a proteolytic enzyme inhibitor instead of heparin sodium and the conditions were as shown in Table 7. The results are of N=4. “Unit (U)” in the unit of concentration (units/mL) of inhibitor a in Table 7 can be measured, for example, by the quantitative method of urinastatin in the Japanese Pharmacopoeia 15th revision. Specifically, absorbance at 405 nm of a sample solution is measured with a UV 240 spectrophotometer, and concentration of urinastatin can be calculated from a calibration curve prepared in advance. […]

[4] = system: Chinese hamster fibroblast; assay: as above; conditions: for Average survival rate at 24 hours / Average survival rate at 72 hours: Ringer's solution; for Average survival rate at 24 hours: normal temperature (22° C.); for Average survival rate at 72 hours: refrigerator 4° C.
Protocol: as §1, §2

[5] = system: Rat corneal epithelial cell; assay: Cell dormancy effect: cell cycle analysis by flow cytometry; conditions: Na alginate 2.5 mg/mL (Wako first grade, 120 mPa·s); serum-free cell culture solution; cultured 48 hours at 37° C.
Protocol: Sodium alginate (sodium alginate first grade reagent, available from FUJIFILM Wako Pure Chemical Corporation, viscosity of 1% aqueous solution is 120 mPa·s at 20° C.), DS (the same as in Experimental Example 1), or sodium heparin (the same as in Experimental Example 1) was used as an active ingredient in the cell treatment agent, and whether cell dormancy occurs or not by action of the active ingredient was examined by comparing the activities of cell division and proliferation which are the most general cell activities in the following manner.
The cell cycle was analyzed by flow cytometry according to the method described in known literature (Piotr Pozarowski and Zbigniew Darzynkiewicz, “Analysis of Cell Cycle by Flow Cytometry,” Methods in Molecular Biology, vol. 281: Checkpoint Controls and Cancer, Volume 2), and frequency of cell division and proliferation was compared between different active ingredients of the cell treatment agent. A specific method is as follows. Using a normal serum-free cell culture solution as a conditioning solution (comparison reference (a)), (b) a cell preservation solution in which sodium alginate (Na alginate) is added to the conditioning solution in a concentration of 2.5 mg/ml, (c) a cell preservation solution in which DS is added to the conditioning solution in a concentration of 0.1 mg/ml, and (d) a cell preservation solution in which heparin sodium (heparin Na) is added to the conditioning solution in a concentration of 50 units/ml, were prepared. To these cell preservation solutions, rat corneal epithelial cells were added at a cell concentration of 10^5 cells/ml and cultured for 48 hours under normal cell culture conditions (37° C., CO2 concentration of 5%, humidity of 100%). The number of cells in each culture was determined by cell cycle analysis using flow cytometry to determine the number of cells in each cell cycle, and the percentage of cells in the S phase, G2 phase, and M phase, which are considered as the periods of the cell division and proliferation process, was compared with the percentage of cells in the G0 phase and G1 phase, which are considered as other periods. The results are of N=4.

[6] = Na alginate 0.63 mg/mL, Ringer's solution
[7] = Na alginate 0.63 mg/mL, serum-free cell culture solution
[8] = Na alginate 2.5 mg/mL, Ringer's solution
[9] = Na alginate 2.5 mg/mL, serum-free cell culture solution
[10] = Na alginate 5 mg/mL, serum-free cell culture solution
[11] = Sodium alginate 0.5 mg/ml, Ringer's solution
[12] = Sodium alginate 2.5 mg/ml, Ringer's solution
[13] = Sodium alginate 50 mg/ml, Ringer's solution

`N=C(N)c1ccc2cc(OC(=O)c3ccc(N=C(N)N)cc3)ccc2c1` [inhibitor b, nafamostat mesilate] was tested. Which “Average survival rate at 48 hours” value [1] did it give?
Its value is 43%.

dextran [reference compound] was tested. Which “Detachment and suspension of adherent cells after replacement” value [2] did it give?
Its value is “not detached and suspended in any of the cases”.

“low molecular weight heparin sodium [reference compound]” was tested. Which “Effect of improving cell viability (cell protective effect)” value ([3]; rat corneal epithelial cells, same experiment as for heparin sodium, values not given) did it give?
Its value is “the cell protective effect was observed”.

What about the “Effect of improving cell viability (cell protective effect)” value ([4]; Chinese hamster fibroblasts, same preservation experiments, values not given) of the same molecule?
Its value is “the cell protective effect was observed”.

What does the source list for sodium alginate [Na alginate]?
Average survival rate at 24 hours [3, 6]: 52%; Average survival rate at 72 hours [3, 6]: 68%; Average survival rate at 24 hours [3, 7]: 60%; Average survival rate at 72 hours [3, 7]: 77%; Average survival rate at 24 hours ([3]; Na alginate 1.25 mg/mL, Ringer's solution): 51%; Average survival rate at 24 hours [3, 8]: 53%; Average survival rate at 72 hours [3, 8]: 72%; Average survival rate at 24 hours [3, 9]: 70%; Average survival rate at 72 hours [3, 9]: 80%; Average survival rate at 72 hours ([3]; Na alginate 5 mg/mL, Ringer's solution): 64%; Average survival rate at 24 hours [3, 10]: 74%; Average survival rate at 72 hours [3, 10]: 70%; Average survival rate at 24 hours ([4]; Na alginate 0.63 mg/mL): 56%; Average survival rate at 72 hours ([4]; Na alginate 0.63 mg/mL): 73%; Average survival rate at 24 hours ([4]; Na alginate 1.25 mg/mL): 57%; Average survival rate at 24 hours ([4]; Na alginate 2.5 mg/mL): 60%; Average survival rate at 72 hours ([4]; Na alginate 2.5 mg/mL): 77%; Average survival rate at 72 hours ([4]; Na alginate 5 mg/mL): 70%; Percentages of cells of each cell cycle: G0 phase + G1 phase [5]: 88.1%; Percentages of cells of each cell cycle: S phase + G2 phase + M phase [5]: 10.1%

“sodium alginate [Sodium alginate 30 mPa · s (1% aqueous solution, 20° C.)]” was tested. Which “Average survival rate after preservation for 24 hours” value ([3]; Sodium alginate 0.2 mg/ml, Ringer's solution) did it give?
The value was 50%.

What about the “Average survival rate after preservation for 7 days” value [3, 11] of the same molecule?
Its value is 51%.

What about the “Average survival rate after preservation for 24 hours” value ([3]; Sodium alginate 1 mg/ml, Ringer's solution) of the same molecule?
Its value is 54%.

And the “Average survival rate after preservation for 7 days” value [3, 12]?
Its value is 56%.

What does the source list for “sodium alginate [Sodium alginate 30 mPa · s (10% aqueous solution, 20° C.)]”?
Average survival rate after preservation for 7 days [3, 12]: 54%; Average survival rate after preservation for 7 days ([3]; Sodium alginate 10 mg/ml, Ringer's solution): 69%; Average survival rate after preservation for 24 hours ([3]; Sodium alginate 20 mg/ml, Ringer's solution): 46%; Average survival rate after preservation for 24 hours [3, 13]: 50%; Average survival rate after preservation for 7 days [3, 13]: 72%

Which results are given for “sodium alginate [Sodium alginate 120 mPa · s (1% aqueous solution, 20° C.)]”?
Average survival rate after preservation for 24 hours ([3]; Sodium alginate 0.1 mg/ml, Ringer's solution): 62%; Average survival rate after preservation for 7 days [3, 11]: 53%; Average survival rate after preservation for 24 hours [3, 12]: 59%; Average survival rate after preservation for 7 days [3, 12]: 52%

B1: urinastatin (protein, UniProt P02760 206-352, looked up)
Inter-alpha-trypsin inhibitor …: AVLPQEEEGSGGGQLVTEVTKKEDSCQLGYSAGPCMGMTSRYFYNGTSMACETFQYGGCMGNGNNFVTEKECLQTCRTVAACNLPIVRGPCRAFIQLWAFDAVKGKCVLFPYGGCQGNGNKFYSEKECREYCGVPGDGDEELLRFSN
modifications: Inter-alpha-trypsin inhibitor light chain
B1 was tested. Which “Average survival rate at 72 hours” value ([3]; inhibitor a 5 units/mL, Ringer's solution) did it give?
Its value is 70%.
